Measurements: patent US20100041089A1, “IMPROVED METHOD FOR DETECTING CHEMICAL […]” (priority 2006, published 2010)

Tested on: yeast genes (expressed mRNA)
Experiment: DNA chip measurement of expressed mRNA of yeast genes after culture with a toxic chemical substance
Type: cell-based, Saccharomyces cerevisiae S288C
Details: for level of expressed mRNA in the presence of chemical substance / level in the absence of chemical substance: cultured two hours with the chemical substance; for The level of expressed mRNA in the presence of chemical substance/The level of expressed mRNA in the absence of chemical substance: cultured two hours with substance
Description: Yeast (Saccharomyces cerevisiae S288C (a SUC2mal mel gap2 CUP1)) were cultured at 25° C. on YPD medium (yeast extract 1%, polypeptone 2%, glucose 2%). One of toxic chemical substances was added to the cell at logarithmic growth phase, and the cell was further cultured for two hours. Cell was cultured without any chemical substance in the same condition, and was used as a control. Concentrations of the chemical substances were defined to inhibit the growth of the yeast but not lead to death.
After the completion of cultivation, the culture was centrifuged to collect the cells. To the cells, sodium acetate buffer (50 mM sodium acetate, 10 mM EDTA, 1% SDS) was added, and the mixture was shaken at 65° C. for five minutes, followed by returning to room temperature, and obtaining the supernatant, which procedure was repeated two times. To the supernatant, ½ amount of a solution of phenol/chloroform (1:1) was added, and the mixture was centrifuged to give a supernatant, an equal amount of chloroform was added, and the mixture was centrifuged to give a supernatant. To the supernatant, an equal amount of isopropanol containing 0.3 M sodium acetate was added, and the mixture was allowed to stand at room temperature for 30 minutes, after which the mixture was centrifuged to give sediment of the whole RNAs. Seventy % ethanol was added to the sediment, and the mixture was again centrifuged to give sediment, which was then dried and dissolved in water. mRNA was isolated from the whole RNAs as followings. In view of the fact that a poly A chain is attached to the 3′ terminus of mRNA, a polynucleotide having a poly T structure which was immobilized on the surface of latex beads was used to trap the mRNA, and then the mRNA was washed and eluted with spine column (Oligotex-dT30<Super>mRNA Purification Kit, Takara). Reverse transcription of the mRNA was conducted with a reverse transcriptase (Super Script II Reverse Transcriptase; catalogue No. 18064-014, GibcoBRL) using fluorescence-labeled nucleotides to give cDNAs that were introduced with Cy3-dUTP or Cy5-dUTP during the reverse transcription.
The labeled cDNAs were dissolved in TE buffer (10 mM Tris-HCl/1 mM EDTA, pH 8.0), and the solution was dropped on the DNA chip containing the whole genes of yeast (DNA Chip Research Inc. Japan) so that the cDNAs were hybridized on the DNA chip at 65° C. for over 12 hours. The fluoresces intensity of the DNA chip was read with a scanner, and the ratio relative to the fluorescence intensity resulting from the absence of chemical substance was estimated as the following, which is shown in Tables 1 to 9.
In the Tables, “Intensity” indicated in the rightmost column is a value of the level of expressed mRNA of each gene in control cells as divided by the average level of the expressions of the whole genes. A gene of which mRNA level is lower in control, and is higher in cases of addition of chemical substance, is especially useful in the detection of toxic substances.
Here, when a ratio of an amount of mRNA expressed in the presence of the chemical substance to an amount of mRNA expressed in the absence of the chemical substance is two or more, then it is considered significant.

## Na2As [(1)]
Gene YBR036C, Metabolism protein genes, DNA chip fluorescence ratio
  The level of expressed mRNA in the presence of chemical substance/The level of expressed mRNA in the absence of chemical substance, yeast gene YBR036C: 0.8
Gene YBR298C, Metabolism protein genes, DNA chip fluorescence ratio
  The level of expressed mRNA in the presence of chemical substance/The level of expressed mRNA in the absence of chemical substance, yeast gene YBR298C: 1.1
Gene YDL067C (mitochondria-located protein gene), yeast cultured two hours with chemical substance, DNA chip fluorescence ratio to control
  The level of expressed mRNA in the presence of chemical substance/The level of expressed mRNA in the absence of chemical substance, yeast gene YDL067C: 1.8
Gene YDL078C, Metabolism protein genes, DNA chip fluorescence ratio
  The level of expressed mRNA in the presence of chemical substance/The level of expressed mRNA in the absence of chemical substance, yeast gene YDL078C: 0.7
Gene YDL215C, Metabolism protein genes, DNA chip fluorescence ratio
  The level of expressed mRNA in the presence of chemical substance/The level of expressed mRNA in the absence of chemical substance, yeast gene YDL215C: 1.0
Gene YDR079W (mitochondria-located protein gene), yeast cultured two hours with chemical substance, DNA chip fluorescence ratio to control
  The level of expressed mRNA in the presence of chemical substance/The level of expressed mRNA in the absence of chemical substance, yeast gene YDR079W: 1.3
Gene YDR297W, Metabolism protein genes, DNA chip fluorescence ratio
  The level of expressed mRNA in the presence of chemical substance/The level of expressed mRNA in the absence of chemical substance, yeast gene YDR297W: 1.5
Gene YDR387C, Metabolism protein genes, DNA chip fluorescence ratio
  The level of expressed mRNA in the presence of chemical substance/The level of expressed mRNA in the absence of chemical substance, yeast gene YDR387C: 0.8
Gene YGL035C, Metabolism protein genes, DNA chip fluorescence ratio
  The level of expressed mRNA in the presence of chemical substance/The level of expressed mRNA in the absence of chemical substance, yeast gene YGL035C: 0.7
Gene YGR062C (mitochondria-located protein gene), yeast cultured two hours with chemical substance, DNA chip fluorescence ratio to control
  The level of expressed mRNA in the presence of chemical substance/The level of expressed mRNA in the absence of chemical substance, yeast gene YGR062C: 0.9
Gene YGR287C, Metabolism protein genes, DNA chip fluorescence ratio
  The level of expressed mRNA in the presence of chemical substance/The level of expressed mRNA in the absence of chemical substance, yeast gene YGR287C: 1.3
Gene YJL070C, Metabolism protein genes, DNA chip fluorescence ratio
  The level of expressed mRNA in the presence of chemical substance/The level of expressed mRNA in the absence of chemical substance, yeast gene YJL070C: 1.3
Gene YJL096W (mitochondria-located protein gene), yeast cultured two hours with chemical substance, DNA chip fluorescence ratio to control
  The level of expressed mRNA in the presence of chemical substance/The level of expressed mRNA in the absence of chemical substance, yeast gene YJL096W: 1.0
Gene YJL180C (mitochondria-located protein gene), yeast cultured two hours with chemical substance, DNA chip fluorescence ratio to control
  The level of expressed mRNA in the presence of chemical substance/The level of expressed mRNA in the absence of chemical substance, yeast gene YJL180C: 0.9
Gene YKR009C, Metabolism protein genes, DNA chip fluorescence ratio
  The level of expressed mRNA in the presence of chemical substance/The level of expressed mRNA in the absence of chemical substance, yeast gene YKR009C: 1.0
Gene YLR295C (mitochondria-located protein gene), yeast cultured two hours with chemical substance, DNA chip fluorescence ratio to control
  The level of expressed mRNA in the presence of chemical substance/The level of expressed mRNA in the absence of chemical substance, yeast gene YLR295C: 1.4
Gene YLR351C, Metabolism protein genes, DNA chip fluorescence ratio
  The level of expressed mRNA in the presence of chemical substance/The level of expressed mRNA in the absence of chemical substance, yeast gene YLR351C: 1.0
Gene YLR375W, Metabolism protein genes, DNA chip fluorescence ratio
  The level of expressed mRNA in the presence of chemical substance/The level of expressed mRNA in the absence of chemical substance, yeast gene YLR375W: 0.9
Gene YMR023C (mitochondria-located protein gene), yeast cultured two hours with chemical substance, DNA chip fluorescence ratio to control
  The level of expressed mRNA in the presence of chemical substance/The level of expressed mRNA in the absence of chemical substance, yeast gene YMR023C: 1.4
Gene YMR267W (mitochondria-located protein gene), yeast cultured two hours with chemical substance, DNA chip fluorescence ratio to control
  The level of expressed mRNA in the presence of chemical substance/The level of expressed mRNA in the absence of chemical substance, yeast gene YMR267W: 0.8
Gene YMR267W, Metabolism protein genes, DNA chip fluorescence ratio
  The level of expressed mRNA in the presence of chemical substance/The level of expressed mRNA in the absence of chemical substance, yeast gene YMR267W: 0.8
Gene YMR278W, Metabolism protein genes, DNA chip fluorescence ratio
  The level of expressed mRNA in the presence of chemical substance/The level of expressed mRNA in the absence of chemical substance, yeast gene YMR278W: 0.7
Gene YMR293C, Metabolism protein genes, DNA chip fluorescence ratio
  The level of expressed mRNA in the presence of chemical substance/The level of expressed mRNA in the absence of chemical substance, yeast gene YMR293C: 0.9
Gene YNL073W (mitochondria-located protein gene), yeast cultured two hours with chemical substance, DNA chip fluorescence ratio to control
  The level of expressed mRNA in the presence of chemical substance/The level of expressed mRNA in the absence of chemical substance, yeast gene YNL073W: 0.8
Gene YNR072W, Metabolism protein genes, DNA chip fluorescence ratio
  The level of expressed mRNA in the presence of chemical substance/The level of expressed mRNA in the absence of chemical substance, yeast gene YNR072W: 1.1
Gene YOL096C, Metabolism protein genes, DNA chip fluorescence ratio
  The level of expressed mRNA in the presence of chemical substance/The level of expressed mRNA in the absence of chemical substance, yeast gene YOL096C: 1.1
Gene YOR180C, Metabolism protein genes, DNA chip fluorescence ratio
  The level of expressed mRNA in the presence of chemical substance/The level of expressed mRNA in the absence of chemical substance, yeast gene YOR180C: 0.8
Gene YOR316C (mitochondria-located protein gene), yeast cultured two hours with chemical substance, DNA chip fluorescence ratio to control
  The level of expressed mRNA in the presence of chemical substance/The level of expressed mRNA in the absence of chemical substance, yeast gene YOR316C: 0.7
Gene YOR363C, Metabolism protein genes, DNA chip fluorescence ratio
  The level of expressed mRNA in the presence of chemical substance/The level of expressed mRNA in the absence of chemical substance, yeast gene YOR363C: 0.8
Gene YPL040C (mitochondria-located protein gene), yeast cultured two hours with chemical substance, DNA chip fluorescence ratio to control
  The level of expressed mRNA in the presence of chemical substance/The level of expressed mRNA in the absence of chemical substance, yeast gene YPL040C: 1.1
Gene YPL134C (mitochondria-located protein gene), yeast cultured two hours with chemical substance, DNA chip fluorescence ratio to control
  The level of expressed mRNA in the presence of chemical substance/The level of expressed mRNA in the absence of chemical substance, yeast gene YPL134C: 1.5
Gene YPR184W, Metabolism protein genes, DNA chip fluorescence ratio
  The level of expressed mRNA in the presence of chemical substance/The level of expressed mRNA in the absence of chemical substance, yeast gene YPR184W: 1.2
Yeast gene YAL018C
  level of expressed mRNA in the presence of chemical substance / level in the absence of chemical substance: 2.0
Yeast gene YAL053W
  The level of expressed mRNA in the presence of chemical substance/The level of expressed mRNA in the absence of chemical substance: 0.9
Yeast gene YAR047C
  level of expressed mRNA in the presence of chemical substance / level in the absence of chemical substance: 1.1
Yeast gene YAR064W
  level of expressed mRNA in the presence of chemical substance / level in the absence of chemical substance: 2.1
Yeast gene YBL044W
  level of expressed mRNA in the presence of chemical substance / level in the absence of chemical substance: 0.9
Yeast gene YBL048W
  The level of expressed mRNA in the presence of chemical substance/The level of expressed mRNA in the absence of chemical substance: 2.0
Yeast gene YBL107C
  The level of expressed mRNA in the presence of chemical substance/The level of expressed mRNA in the absence of chemical substance: 1.4
Yeast gene YBR012C
  level of expressed mRNA in the presence of chemical substance / level in the absence of chemical substance: 2.5
Yeast gene YBR066C
  level of expressed mRNA in the presence of chemical substance / level in the absence of chemical substance: 1.9
Yeast gene YBR124W
  level of expressed mRNA in the presence of chemical substance / level in the absence of chemical substance: 0.9
Yeast gene YBR162C
  level of expressed mRNA in the presence of chemical substance / level in the absence of chemical substance: 0.6
Yeast gene YBR287W
  level of expressed mRNA in the presence of chemical substance / level in the absence of chemical substance: 1.7
Yeast gene YCL056C
  level of expressed mRNA in the presence of chemical substance / level in the absence of chemical substance: 1.3
Yeast gene YCR007C
  level of expressed mRNA in the presence of chemical substance / level in the absence of chemical substance: 2.2
Yeast gene YDL046W
  level of expressed mRNA in the presence of chemical substance / level in the absence of chemical substance: 1.2
Yeast gene YDL072C
  The level of expressed mRNA in the presence of chemical substance/The level of expressed mRNA in the absence of chemical substance: 1.3
Yeast gene YDL204W
  The level of expressed mRNA in the presence of chemical substance/The level of expressed mRNA in the absence of chemical substance: 1.4
Yeast gene YDL222C
  The level of expressed mRNA in the presence of chemical substance/The level of expressed mRNA in the absence of chemical substance: 0.9
Yeast gene YDR090C
  level of expressed mRNA in the presence of chemical substance / level in the absence of chemical substance: 0.9
Yeast gene YDR128W
  level of expressed mRNA in the presence of chemical substance / level in the absence of chemical substance: 0.6
